Measured values from patent US6287586A, “Pharmaceutical compositions of vanadium biguanide complexes and their use” (priority 1999, dated 2001).

Experiments:
STZ-diabetic rats = assay: Plasma glucose lowering in STZ-diabetic rats after i.p. administration (glucose oxidase method); type: in vivo, male Wistar rats; settings: for AUC (blood glucose): over 72 h after 0.12 mmol/kg i.p., group average; for rats with plasma glucose levels reduced to <9 mmol/L: 0.12 mmol/kg i.p. in 3% gum Arabic, STZ-diabetic rats
Description: Nineteen male Wistar rats weighing 190-220 g were obtained from the Animal Care Center at the University of British Columbia. Animals were acclimatized for a period of 7-14 days in our facility.
Animals were made diabetic with a single intravenous injection of streptozotocin (STZ) (Source: Sigma) at 60 mg/kg in 0.9% NaCl (1 mL/kg volume) (Source: BDH ) under light halothane (Halocarbon Laboratories) anaesthesia. The diabetic state was confirmed on the third day post-stz-administration with Ames brand Glucometer and Glucostix reading, and blood glucose levels of over 13 mM were categorized as diabetic.
On day seven post STZ-administration, the nineteen animals were divided randomly into four groups. These four groups received one of four treatments, including control. The control group received an equivalent volume of 3% gum Arabic carrier alone.
The gum arabic was prepared by dissolving 3 g of gum arabic in 100 mL of distilled water. This mixture was sealed and stored under refrigeration for 1 week before the experiment.
All drugs were injected intraperitoneally into the rats at a volume of 5 ml/kg in 3% gum Arabic. The dose of administration was 0.12 mmol/kg.
Animals were allowed free access to food.
Blood was collected from the tail into heparinized capillary tubes and centrifuged at 10,000 g for 15 minutes. Blood was collected in 50 μL aliquots in this manner prior to drug administration, and at 2, 4, 6, 8, 12, 16, 20, 24, 48 and 72 hours post administration.
The plasma was analyzed for glucose levels using Boehringer Mannheim Glucose Kits (glucose oxidase method).

[1] = human, in vivo, cited from earlier work
[2] = withdrawn drug; cited from earlier work
[3] = Sakurai et al. (1980); cited from earlier work
STZ diabetic rats = settings: cited from earlier work
rat adipocytes = settings: in vitro, Nature 284:556-558 (1980); cited from earlier work

For `CN(C)C(=N)NC(=N)N` [Metformin, 1,1-dimethylbiguanide], the “acute lowering of plasma glucose (in words)” value (STZ-diabetic rats; IP 0.12 mmol/kg in 3% gum Arabic, over 72 hours) is listed as “did not acutely lower plasma glucose levels”, the “AUC (blood glucose)” value (STZ-diabetic rats) is listed as 1572.94 mmol/L/h and the “dose excreted by the kidneys” value ([1]; 24 h) is listed as “about 90%”. For the same compound, the “oral dose excreted in the feces” value ([1]; po) was “Approximately 30%”.
In the case of `[H]/N=C(/N)N/C(=N/[H])NCCc1ccccc1` [phenformin, 1-phenethylbiguanide], the “side effects (in words)” value [2] is listed as “serious lactic acidosis side effects”.
For `[O]=[V]([O-])([O-])[O-]` [vanadate], the “in vivo reduction (in words)” value [3] is listed as “reduced in vivo to vanadyl”, the “elevated blood glucose (in words)” value (STZ diabetic rats; STZ rats, administered in drinking water, McNeill et al. 1985) is listed as “decreased the elevated blood glucose” and the “depression of cardiac performance (in words)” value (STZ diabetic rats; STZ rats, drinking water, McNeill et al. 1985) is listed as “prevented the depression of cardiac performance”.
In the case of `[O]=[V+2]` [vanadyl ion], the “stimulation of glucose oxidation (in words)” value (rat adipocytes) is listed as “insulin-like stimulation of glucose oxidation in rat adipocytes was due to the vanadyl ion”.
In the case of `O=S(=O)([O-])[O-].[O]=[V+2]` [vanadyl sulfate], the “blood glucose and blood lipids (in words)” value (STZ diabetic rats; oral, STZ diabetic rats, McNeill et al.) is given as “lowers blood glucose and blood lipids” and the “secondary complications of diabetes (in words)” value (STZ diabetic rats; oral, STZ diabetic rats, cataracts and cardiac dysfunction) is given as “prevents secondary complications of diabetes such as cataracts and cardiac dysfunction”.
In the case of “Bis(N^1,N^1 -dimethylbiguanidato)oxovanadium(IV) [VO(met)2]”, the “rats with plasma glucose levels reduced to <9 mmol/L” value (STZ-diabetic rats) is reported as 40%, the “AUC (blood glucose)” value (STZ-diabetic rats) is reported as 1362.61 mmol/L/h and the “plasma glucose lowering, rat studies (in words)” value (STZ-diabetic rats; rat studies, summary statement) is reported as “active in lowering plasma glucose”.
For “Bis(ethylmaltolato) oxovanadium(IV) [BEOV]”, the “rats with plasma glucose levels reduced to <9 mmol/L” value (STZ-diabetic rats) was 40% and the “AUC (blood glucose)” value (STZ-diabetic rats) was 1197.30 mmol/L/h.
